Assay results as given in ChEMBL document CHEMBL4477208, “Discovery and Rational Design of Pteridin-7(8H)-one-Based Inhibitors Targeting FMS-like Tyrosine Kinase 3 (FLT3) and Its Mutants” (J Med Chem, 2016).

Assays:
[1] = test system: A549; test: Antiproliferative activity against human A549 cells after 72 hrs by SRB assay; format: functional, cell-based; settings: A549, 72 h
[2] = Cmax in overnight fasted Sprague-Dawley rat plasma at 1 mg/kg, iv up to 24 hrs by LC-MS/MS analysis; format: ADME, organism-based; set-up: dose 1 mg/kg, route intravenous
[3] = test system: HL-60; test: Antiproliferative activity against human HL60 cells after 72 hrs by MTT assay; format: functional, cell-based; settings: HL-60, 72 h
[4] = test system: MV4-11; test: Cell cycle arrest in human MV4-11 cells assessed as accumulation at G0/G1 phase after 48 hrs by PI/RNase staining based FACS analysis; format: functional
[5] = test system: NCI-H187; test: Antiproliferative activity against human NCI-H187 cells after 72 hrs by MTT assay; format: functional, cell-based; settings: NCI-H187, 72 h
[6] = test system: MV4-11; test: Cell cycle arrest in human MV4-11 cells assessed as accumulation at S phase at 100 nM after 48 hrs by PI/RNase staining based FACS analysis (reference value: 16.50%); format: functional
[7] = target: Receptor-type tyrosine-protein kinase FLT3 (Homo sapiens, UniProt P36888, D835V/ITD); test: Binding affinity to human partial length FLT3 ITD/D835V mutant expressed in mammalian expression system after 1 hr
[8] = test system: MV4-11; test: Cell cycle arrest in human MV4-11 cells assessed as accumulation at S phase at 10 nM after 48 hrs by PI/RNase staining based FACS analysis (reference value: 16.50%); format: functional
[9] = test system: MV4-11; test: Induction of apoptosis in human MV4-11 cells assessed as viable cells at 1000 nM after 48 hrs by annexin V/propidium iodide staining based FACS analysis (reference value: 90.60%); format: functional; settings: MV4-11, 48 h, read-out: Activity
[10] = test system: MV4-11; test: Cell cycle arrest in human MV4-11 cells assessed as accumulation at S phase at 1000 nM after 48 hrs by PI/RNase staining based FACS analysis (reference value: 16.50%); format: functional
[11] = test system: DMS-79; test: Antiproliferative activity against human DMS79 cells after 72 hrs by MTT assay; format: functional, cell-based; settings: DMS-79, 72 h
[12] = test system: MV4-11; test: Cell cycle arrest in human MV4-11 cells assessed as accumulation at subG1 phase at 100 nM after 48 hrs by PI/RNase staining based FACS analysis (reference value: 0%); format: functional
[13] = AUC (0 to infinity) in overnight fasted Sprague-Dawley rat plasma at 1 mg/kg, iv up to 24 hrs by LC-MS/MS analysis; format: ADME, organism-based; set-up: dose 1 mg/kg, route intravenous, time infinity
[14] = test system: MV4-11; test: Induction of apoptosis in human MV4-11 cells assessed as viable cells at 1 nM after 48 hrs by annexin V/propidium iodide staining based FACS analysis (reference value: 90.60%); format: functional; settings: MV4-11, 48 h, read-out: Activity
[15] = test system: MV4-11; test: animal or person; settings: Mus musculus, MV4-11, po, read-out: TGI
Description: Antitumor activity against human MV4-11 cells xenografted in nude BALB/c mouse assessed as tumor growth inhibition at 10 mg/kg, po qd for 14 days measured every 2 days

[16] = test system: MV4-11; test: Antitumor activity against human MV4-11 cells xenografted in nude BALB/c mouse assessed as tumor growth inhibition at 50 mg/kg, ip qd for 14 days measured every 2 days; format: functional; settings: MV4-11, ip, read-out: TGI
[17] = test system: Receptor-type tyrosine-protein kinase FLT3 (Homo sapiens), P36888 [UNDEFINED MUTATION]; test: Inhibition of human FLT3 ITD/F691L mutant expressed in mammalian system assessed as remaining enzyme activity at 1 uM relative to untreated control
[18] = test system: THP-1; test: Antiproliferative activity against human THP1 cells after 72 hrs by MTT assay; format: functional, cell-based; settings: THP-1, 72 h
[19] = test system: RKO; test: Antiproliferative activity against human RKO cells after 72 hrs by SRB assay; format: functional, cell-based
[20] = test system: MV4-11; test: Cell cycle arrest in human MV4-11 cells assessed as accumulation at G2 phase at 100 nM after 48 hrs by PI/RNase staining based FACS analysis (reference value: 13.95%); format: functional
[21] = test system: MV4-11; test: Antitumor activity against human MV4-11 cells xenografted in nude BALB/c mouse assessed as tumor growth inhibition administered orally qd for 14 days measured every 2 days; format: functional
[22] = test system: MV4-11; test: Induction of apoptosis in human MV4-11 cells assessed as early apoptotic cells at 10 nM after 48 hrs by annexin V/propidium iodide staining based FACS analysis (reference value: 6.31%); format: functional
[23] = Clearance in overnight fasted Sprague-Dawley rat plasma at 1 mg/kg, iv up to 24 hrs by LC-MS/MS analysis; format: ADME, organism-based
[24] = test system: MV4-11; test: Induction of apoptosis in human MV4-11 cells assessed as necrotic cells at 1000 nM after 48 hrs by annexin V/propidium iodide staining based FACS analysis (reference value: 0.05%); format: functional
[25] = target: Receptor-type tyrosine-protein kinase FLT3 (Homo sapiens, UniProt P36888, D835H); test: Binding affinity to human partial length FLT3 D835H mutant (592 to 969 residues) expressed in bacterial expression system after 1 hr
[26] = test system: MV4-11; test: Induction of apoptosis in human MV4-11 cells assessed as early apoptotic cells at 100 nM after 48 hrs by annexin V/propidium iodide staining based FACS analysis (reference value: 6.31%); format: functional
[27] = target: Receptor-type tyrosine-protein kinase FLT3 (Homo sapiens, UniProt P36888, ITD); test: Binding affinity to human partial length FLT3 ITD mutant expressed in bacterial expression system after 1 hr
[28] = target: Dual specificity mitogen-activated protein kinase kinase 5 (Homo sapiens) (UniProt Q13163); test: Inhibition of human MEK5 expressed in mammalian system assessed as remaining enzyme activity at 1 uM relative to untreated control
Chain of Dual specificity mitogen-activated protein kinase kinase 5 (Homo sapiens) (Q13163 whole entry): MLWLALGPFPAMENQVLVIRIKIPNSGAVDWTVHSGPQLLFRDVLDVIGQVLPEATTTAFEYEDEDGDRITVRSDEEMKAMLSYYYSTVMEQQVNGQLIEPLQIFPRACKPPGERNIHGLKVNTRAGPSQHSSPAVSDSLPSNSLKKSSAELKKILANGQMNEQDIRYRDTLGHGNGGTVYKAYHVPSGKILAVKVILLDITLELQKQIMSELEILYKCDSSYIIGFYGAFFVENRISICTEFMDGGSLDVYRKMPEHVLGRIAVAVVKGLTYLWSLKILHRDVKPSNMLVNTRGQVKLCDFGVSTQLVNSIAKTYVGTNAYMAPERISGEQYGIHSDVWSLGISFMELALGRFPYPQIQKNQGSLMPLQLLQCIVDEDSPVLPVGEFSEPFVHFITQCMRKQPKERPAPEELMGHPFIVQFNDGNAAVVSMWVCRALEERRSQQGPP

[29] = test system: MV4-11; test: Induction of apoptosis in human MV4-11 cells assessed as late apoptotic cells at 100 nM after 48 hrs by annexin V/propidium iodide staining based FACS analysis (reference value: 3.01%); format: functional
[30] = test system: MV4-11; test: Induction of apoptosis in human MV4-11 cells assessed as necrotic cells at 1 nM after 48 hrs by annexin V/propidium iodide staining based FACS analysis (reference value: 0.05%); format: functional
[31] = target: Receptor-type tyrosine-protein kinase FLT3 (Homo sapiens) (UniProt P36888); test: Inhibition of human FLT3 expressed in bacterial system assessed as remaining enzyme activity at 1 uM relative to untreated control
[32] = test system: WI-38; test: cells; settings: Homo sapiens, WI-38, 72 h
Description: Antiproliferative activity against human WI38 cells after 72 hrs by SRB assay

[33] = test system: MV4-11; test: Cell cycle arrest in human MV4-11 cells assessed as accumulation at S phase at 1 nM after 48 hrs by PI/RNase staining based FACS analysis (reference value: 16.50%); format: functional
[34] = test system: MV4-11; test: Induction of apoptosis in human MV4-11 cells assessed as early apoptotic cells at 10000 nM after 48 hrs by annexin V/propidium iodide staining based FACS analysis (reference value: 6.31%); format: functional
[35] = test system: MV4-11; test: Cell cycle arrest in human MV4-11 cells assessed as accumulation at G2 phase at 1 nM after 48 hrs by PI/RNase staining based FACS analysis (reference value: 13.95%); format: functional
[36] = test system: HT-29; test: Antiproliferative activity against human HT-29 cells after 72 hrs by SRB assay; format: functional, cell-based; settings: HT-29, 72 h
[37] = AUC (0 to infinity) in overnight fasted Sprague-Dawley rat plasma at 10 mg/kg administered via oral gavage up to 24 hrs by LC-MS/MS analysis; format: ADME, organism-based; set-up: dose 10 mg/kg, route oral, time infinity

Cc1cc(Nc2ncc3ncc(=O)n(-c4ccc(N)cc4)c3n2)ccc1N1CCN(C)CC1
IC50 [1]: > 10000 nM | Cmax [2]: 55.2 ng/mL | IC50 [3]: 1380 nM | Activity [4]: Dose-dependent effect | IC50 [5]: > 10000 nM | Activity [6]: 2.06% | Kd [7]: 0.79 nM | Activity [8]: 18.4% | viability at 1 µM [9]: 27.3% | Activity [10]: 3.07% | IC50 [11]: > 10000 nM | Activity [12]: 12% | AUC(0-inf) [13]: 119 ng·h/mL | viability at 0.001 µM [14]: 90.3% | inhibition in vivo at 10 mg/kg [15]: 28% | inhibition in vivo at 50 mg/kg [16]: 136% | Activity [17]: < 1% | IC50 [18]: > 10000 nM | IC50 [19]: 1930 nM | Activity [20]: 0% | TGI [21]: Dose-dependent effect | Activity [22]: 9.71% | clearance [23]: 142 mL/min/kg | Activity [24]: 0.05% | Kd [25]: 1.8 nM | Activity [26]: 23% | Kd [27]: 6.9 nM | Activity [28]: < 1% | Activity [29]: 16.4% | Activity [30]: 0.1% | Activity [31]: < 1% | IC50 [32]: 4120 nM | Activity [33]: 21.77% | Activity [34]: 68.6% | Activity [35]: 12.59% | IC50 [36]: 3020 nM | AUC(0-inf) [37]: 311 ng·h/mL
